Data published in patent publication EP2926811A1, “ARTEMETHER-CONTAINING PHARMACEUTICAL COMPOSITION, PREPARATION, AND USE THEREOF” (Kunming Pharmaceutical Corp., priority 2012, dated 2014).
Where two headings read alike, the source gives them in different places.

Assays:
Format in all cases: cell-based
K562 cells = assay: modified MTT method, proliferation of K562 cells; conditions: Homo sapiens, read-out: IC50 on the growth of K562 cells
Protocol: (§1) Five test concentrations 2, 10, 50, 250 and 500 µM were set for each of five derivatives of artemisinin, artemether drug substance, artemisinin, dihydroartemisinin, artesunate were dissolved with dimethyl sulfoxide (DMSO), while the lyophilized powder of artemether was dissolved with normal saline (N.S.), followed by addition of a certain amount of RPMI 1640 complete culture solution to formulate a high-concentration solution, and each of the low-concentration solutions was formulated by proportionate dilution from the high-concentration solution.
(§2) The concentrations of DMSO contained in the solutions at the two relatively high concentrations 500 and 250 µM for the artemether drug substance, artemisinin, dihydroartemisinin, artesunate, used as solvent controls, were formulated with […] culture solution, at which time the test concentrations of DMSO were 1% and 0.5%. The concentrations of the excipients contained in the solutions at the two relatively high concentrations 500 and 250 µM for the preparation of lyophilized powder of artemether were used as solvent controls.
(§3) The positive control was an anti-cancer drug adriamycin (ADM), which was set at three test concentrations (final concentrations) of 0.1, 1 and 10 µg/ml. To ADM stock solution (1 mg/ml) a certain amount of PRMI 1640 complete culture solution was added, to formulate a high-concentration solution, and each of the low-concentration solutions were formulated by proportionate dilutions from the high-concentration solution.
(§4) HL-60: (human promyelocytic leukemia cell line); K562 (human chronic myelocytic leukemia cell line); HT-29 (human colon cancer cell line); PC-3 (human prostate cancer cell line); A549 (human non-small cell lung cancer cell line); MKN-28 (human gastric cancer cell line); Hep2 (human laryngeal cancer cell line), all of which were purchased from Cell Bank of Shanghai Institutes for Biological Sciences, the Chinese Academy of Sciences.
(§5) Influence of the five test samples on the proliferation of 7 human tumor cell lines was determined via a modified MTT method.
(§6) Cells in logarithmic growth phase were taken, adjusted to a certain concentration and then added into a 96 well culture plate. After culture of adherent cells for a period until adherence, the test samples were added; and for suspension cells, the test samples were added after inoculation. 5 test concentrations 2, 10, 50, 250 and 500 µM were set, with 3 parallel wells for each concentration, 10 µl/well; the solvent controls were 0.5% and 1% of isovolumetric DMSO, and the positive controls was ADM at 3 concentrations 0.1, 1 and 10 µg/ml. The samples were loaded followed by culture for a period of time in an incubator at 37°C, 5% CO2, followed by addition of MTT (5 mg/ml) at 20 µl/well, and continued to be cultured for a period of time and added with a three-combined solution [10% SDS - 5% isobutanol - 0.012 mol/L HCl (W/V/V)]. After dissolving in uniformity, it was continued to be placed in the incubator at 37°C, 5% CO2 for a period of time, and the OD value of each well was determined under a wavelength of 570 nm with a microplate reader, according to which the results were calculated.
(§7) The cellular proliferation inhibition rate was calculated in accordance with the following equation: Inhibition rate (%) = (OD valuecontrol well-OD valuesample well)/OD valuecontrol well × 100% [formula]
(§8) When the inhibition rate of DMSO on cells was more than 15%, calculation was carried out using the following equation: Inhibition rate (%) = (OD valuesolvent group-OD valueadministered well)/OD valuesolvent group × 100% [formula]
(§9) The inhibition rate was calculated by using Microsoft Excel 2003, and median inhibitory concentration IC50 was calculated with a LOGIT method, which was used as an indicator for judging the inhibitory capability.

HL-60 cells = assay: modified MTT method, proliferation of HL-60 cells; conditions: Homo sapiens, read-out: IC50 on the growth of HL-60 cells
Protocol: as §1, §2, §3, §4, §5, §6, §7, §8, §9

A549 cells = assay: modified MTT method, proliferation of A549 cells; conditions: Homo sapiens, read-out: IC50 on the growth of A549 cells
Protocol: as §1, §2, §3, §4, §5, §6, §7, §8, §9

HT-29 cells = assay: modified MTT method, proliferation of HT-29 cells; conditions: Homo sapiens
Protocol: as §1, §2, §3, §4, §5, §6, §7, §8, §9
(§10) According to the results of preliminary screening, further experiments were adjusted such that more sensitive cell lines were screened out. […]

PC-3 cells = assay: modified MTT method, proliferation of PC-3 cells; conditions: Homo sapiens, read-out: IC50 on the growth of PC-3 cells
Protocol: as §1, §2, §3, §4, §5, §6, §7, §8, §9

MKN-28 cells = assay: modified MTT method, proliferation of MKN-28 cells; conditions: Homo sapiens, MKN-28, 72 h, secondary screening
Protocol: as §1, §2, §3, §4, §5, §6, §7, §8, §9, §10

Hep2 cells = assay: modified MTT method, proliferation of Hep2 cells; conditions: Homo sapiens, HEp-2, 72 h, secondary screening
Protocol: as §1, §2, §3, §4, §5, §6, §7, §8, §9, §10

`COc1cccc2c1C(=O)c1c(O)c3c(c(O)c1C2=O)C[C@@](O)(C(=O)CO)C[C@@H]3O[C@H]1C[C@H](N)[C@H](O)[C@H](C)O1` [ADM, adriamycin] gave an IC50 (K562 cells; K562, 24 h, Batch 1, 24 h) of 7090 nM, an IC50 (K562 cells; K562, 24 h, Batch 2, 24 h) of 5760 nM and an IC50 (K562 cells; K562, 24 h, Batch 3, 24 h) of 2590 nM. For the same compound, the IC50 (K562 cells; K562, 48 h, Batch 1, 48 h) was 1900 nM, the IC50 (K562 cells; K562, 48 h, Batch 2, 48 h) was 240 nM and the IC50 (K562 cells; K562, 48 h, Batch 3, 48 h) was 1690 nM. For the same compound, the IC50 (K562 cells; K562, 72 h, Batch 1, 72 h) was 170 nM, the IC50 (K562 cells; K562, 72 h, Batch 2, 72 h) was 9.93 nM and the IC50 (K562 cells; K562, 72 h, Batch 3, 72 h) was 740 nM. It also gave an IC50 (HL-60 cells; HL-60, 24 h, Batch 1, 24 h) of 9240 nM, an IC50 (HL-60 cells; HL-60, 24 h, Batch 2, 24 h) of 4190 nM and an IC50 (HL-60 cells; HL-60, 48 h, Batch 1, 48 h) of 1720 nM. The IC50 (HL-60 cells; HL-60, 48 h, Batch 2, 48 h) was 160 nM, the IC50 (HL-60 cells; HL-60, 72 h, Batch 1, 72 h) was 780 nM and the IC50 (HL-60 cells; HL-60, 72 h, Batch 2, 72 h) was 570 nM. It also gave an IC50 (A549 cells; A549, 24 h, Batch 1, 24 h) of 38800 nM, an IC50 (A549 cells; A549, 24 h, Batch 2, 24 h) greater than 100000 nM and an IC50 (A549 cells; A549, 48 h, Batch 1, 48 h) of 10700 nM. For the same compound, the IC50 (A549 cells; A549, 48 h, Batch 2, 48 h) was 620 nM, the IC50 (A549 cells; A549, 72 h, Batch 1, 72 h) was 760 nM and the IC50 (A549 cells; A549, 72 h, Batch 2, 72 h) was 190 nM. It also gave an IC50 (HT-29 cells; HT-29, 24 h, preliminary screening, Batch 1, 24 h, read-out: IC50 on the growth of HT-29 cells) of 2280 nM, an IC50 (HT-29 cells; HT-29, 24 h, preliminary screening, Batch 2, 24 h, read-out: IC50 on the growth of HT-29 cells) of 3810 nM and an IC50 (HT-29 cells; HT-29, 48 h, preliminary screening, Batch 1, 48 h, read-out: IC50 on the growth of HT-29 cells) of 280 nM. The IC50 (HT-29 cells; HT-29, 48 h, preliminary screening, Batch 2, 48 h, read-out: IC50 on the growth of HT-29 cells) was 590 nM, the IC50 (HT-29 cells; HT-29, 72 h, preliminary screening, Batch 1, 72 h, read-out: IC50 on the growth of HT-29 cells) was 57 nM and the IC50 (HT-29 cells; HT-29, 72 h, preliminary screening, Batch 2, 72 h, read-out: IC50 on the growth of HT-29 cells) was 110 nM. It also gave an IC50 (HT-29 cells; HT-29, 72 h, secondary screening, 72 h, Batch 1, read-out: IC50 on the growth of HT-29 cells (72 h)) of 110 nM, an IC50 (HT-29 cells; HT-29, 72 h, secondary screening, 72 h, Batch 2, read-out: IC50 on the growth of HT-29 cells (72 h)) of 190 nM and an IC50 (HT-29 cells; HT-29, 72 h, secondary screening, 72 h, Batch 3, read-out: IC50 on the growth of HT-29 cells (72 h)) of 120 nM. It also gave an IC50 (HT-29 cells; HT-29, 72 h, secondary screening, 72 h, average, read-out: IC50 on the growth of HT-29 cells (72 h)) of 110 nM, an IC50 (PC-3 cells; PC-3, 24 h, Batch 1, 24 h) of 33000 nM and an IC50 (PC-3 cells; PC-3, 24 h, Batch 2, 24 h) of 47800 nM. For the same compound, the IC50 (PC-3 cells; PC-3, 48 h, Batch 1, 48 h) was 7600 nM, the IC50 (PC-3 cells; PC-3, 48 h, Batch 2, 48 h) was 9620 nM and the IC50 (PC-3 cells; PC-3, 72 h, Batch 1, 72 h) was 3160 nM. The IC50 (PC-3 cells; PC-3, 72 h, Batch 2, 72 h) was 3740 nM, the IC50 (MKN-28 cells; Average, read-out: IC50 on the growth of MKN-28 cells (72 h)) was 510 nM and the IC50 (MKN-28 cells; Batch 1, read-out: IC50 on the growth of MKN-28 cells (72 h)) was 520 nM. For the same compound, the IC50 (MKN-28 cells; Batch 2, read-out: IC50 on the growth of MKN-28 cells (72 h)) was 530 nM, the IC50 (MKN-28 cells; Batch 3, read-out: IC50 on the growth of MKN-28 cells (72 h)) was 470 nM and the IC50 (Hep2 cells; Batch 1, read-out: IC50 on the growth of Hep2 cells (72 h)) was 410 nM. It also gave an IC50 (Hep2 cells; Batch 2, read-out: IC50 on the growth of Hep2 cells (72 h)) of 260 nM, an IC50 (Hep2 cells; Batch 3, read-out: IC50 on the growth of Hep2 cells (72 h)) of 1000 nM and an IC50 (Hep2 cells; average, read-out: IC50 on the growth of Hep2 cells (72 h)) of 510 nM.
